Measured values as given in US20220017495A1, “CONJUGATES OF BIVALENT EVANS BLUE DYE DERIVATIVES AND METHODS OF USE” (THE UNITED STATES OF AMERICA, AS REPRESENTED BY THE …, priority 2019, published 2022).
Structures can show the parent of a compound that is named as a salt.

Tests used:
[1] = Optical properties: absorption, emission, quantum yield and quantum efficiency; format: physicochemical; design: ϵ600nm / ϵpeak: unit not given here; conditions: for Molar ϵ600nm / Molar ϵpeak: in M-1cm-1 (unit assumed); for Absorption peak / Emission peak: in BSA; for QE: QE=ε*QY; for QY600nm: relative, NtEB set as 1; for Extinction coefficient: as given in text (peak, BSA)
Protocol: The absorption and the emission spectra of N(tEB)2, NtEB and EB were measured in PBS, BSA and FBS buffers. […] The similar emission peaks of the three EB derivatives in BSA were recorded at 661, 652 and 660 nm, respectively.
Fluorescence brightness of each compound was further compared with equal molar amount of N(tEB)2, NtEB, or EB in the presence or absence of human serum albumin.
Quantum efficiency is a dye metric encompassing both the quantum yield and absorption coefficient (QE=ε*QY).

[2] = biological target: T1, human serum albumin (HSA) (Homo sapiens, UniProt P02768); assay: Biolayer interferometry (BLI) binding to biotinylated HSA
T1 sequence (P02768 25-609): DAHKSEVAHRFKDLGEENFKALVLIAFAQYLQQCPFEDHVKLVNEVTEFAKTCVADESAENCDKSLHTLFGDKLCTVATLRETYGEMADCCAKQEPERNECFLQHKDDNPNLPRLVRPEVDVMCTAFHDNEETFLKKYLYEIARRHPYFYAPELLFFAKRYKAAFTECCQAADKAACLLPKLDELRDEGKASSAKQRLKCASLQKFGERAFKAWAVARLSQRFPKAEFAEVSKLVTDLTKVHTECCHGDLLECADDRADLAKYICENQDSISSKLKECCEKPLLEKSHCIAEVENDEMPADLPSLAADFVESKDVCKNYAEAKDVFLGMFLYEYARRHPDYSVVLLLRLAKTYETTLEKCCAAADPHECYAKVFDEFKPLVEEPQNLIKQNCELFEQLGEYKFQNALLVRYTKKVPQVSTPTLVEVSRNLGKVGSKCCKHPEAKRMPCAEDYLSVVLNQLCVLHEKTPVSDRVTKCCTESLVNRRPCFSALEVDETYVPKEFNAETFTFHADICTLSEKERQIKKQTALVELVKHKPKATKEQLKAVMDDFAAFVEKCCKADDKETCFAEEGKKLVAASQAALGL
Protocol: In this study, we used the streptavidin conjugated biosensors (Pall Fort6Bio LLC, CA). We preincubated the biosensors with biotinylated HSA (Abeam Inc., Cambridge, Mass.) for 10 minutes. After removing the unbound biotinylated HSA, the biosensors were washed for 1 minute. After blocking the spare biosensor, we added EZ-Link™ Sulfo-NHS-Biotin (Thermo Fisher Scientific, Rockford, Ill.) to each well and then removed it and washed the wells.
Association of a given dilution of a compound with the albumin-derivatized biosensor was measured for 600 seconds and then in turn, dissociation of the compound from the albumin measured for another 600 seconds. Data was analyzed using the OCTET Data Analysis software 7.0.

[3] = tested on: U-87MG, UM-22B and INS-1 tumor mouse xenografts; assay: PET tumor uptake and ex vivo biodistribution in tumor xenografts; design: species or system nude mice; conditions: for Tumor retention compared with IgG: U-87MG xenografts
Source text: For each scan, regions of interest (ROIs) were drawn using vendor software (ASI Pro 5.2.4.0; Siemens Medical Solutions) on decay-corrected whole-body coronal images. […] These values were then divided by the administered activity to obtain (assuming a tissue density of 1 g/mL) an image-ROI-derived percentage injected dose per gram (% ID/g).
PET images were reconstructed without correction for attenuation or scattering using a three-dimensional ordered subsets expectation maximization algorithm.

[4] = biological target: T1, human serum albumin (HSA); assay: Atomic force microscopy of complexes with HSA; design: purchased Abeam Inc., Cambridge, Mass; (so in the source); conditions: molar ratio 1:10, 1:1 and 10:1 with HSA
Protocol: We performed atomic force microscopy (AFM) to study the morphological structures of the complex. […] Samples ([…]) were cast on freshly peeled mica substrate, followed by drying, rinsing, and dehumidifying. AFM was carried out in tapping mode in air on a PicoForce Multimode AFM (Bruker, CA) equipped with a NANOSCOPE V controller, a type E scanner head, and a sharpened TESP-SS (Bruker, CA) AFM cantilever. An inverted optical microscope (IX71, Olympus, Japan) was used to capture pictures. AFM images were then analyzed by NANOSCOPE Software (version 7.3-8.15, Bruker, CA). For quantification, 10 different fields of view in one image were selected to quantify the “dimer” and the “monomer”. The size and morphology of dimer and monomer was defined by ImageJ (NIH, MD), a public domain Java image processing program.

[5] = tested on: blood glucose; assay: Blood glucose monitoring in T2DM mice; format: in vivo, db/db mice

Row | OD600nm ([1]; In BSA) | ODpeak ([1]; In BSA) | ϵ600nm ([1]; In BSA) | ϵpeak ([1]; In BSA) | Molar ϵ600nm ([1]; In BSA) | Molar ϵpeak ([1]; In BSA) | OD600nm ([1]; In FBS) | ODpeak ([1]; In FBS) | ϵ600nm ([1]; In FBS) | ϵpeak ([1]; In FBS) | Molar ϵ600nm ([1]; In FBS) | Molar ϵpeak ([1]; In FBS) | OD600nm ([1]; In PBS) | ODpeak ([1]; In PBS) | ϵ600nm ([1]; In PBS) | ϵpeak ([1]; In PBS) | Molar ϵ600nm ([1]; In PBS) | Molar ϵpeak ([1]; In PBS) | Absorption peak [1] [nm] | Emission peak [1] [nm] | Molecule | also measured
1 | 0.905 | 0.9551 | 88.14 | 93.02 | 84683.69 | 89371.71 | 0.8414 | 0.9057 | 81.94 | 88.21 | 78732.44 | 84749.19 | 0.9906 | 0.9983 | 96.47 | 97.22 | 92693.55 | 93414.07 | 548 | 660 | Cc1cc(-c2ccc(N=Nc3ccc4c(S(=O)(=O)O)cc(S(=O)(=O)O)c(N)c4c3O)c(C)c2)ccc1N=Nc1ccc2c(S(=O)(=O)O)cc(S(=O)(=O)O)c(N)c2c1O [EB, tetrasodium salt of 6,6′-{(3,3′-dimethyl[1,1′-biphenyl]-4,4′-diyl)bis[diazene-2,1-diyl]}bis(4-amino-5-hydroxynaphthalene-1,3-disulfonate)] | –
2 | 0.1245 | 0.183 | 27.79 | 40.85 | 37553.09 | 55198.51 | 0.1561 | 0.1931 | 34.84 | 43.10 | 47084.63 | 58244.99 | 0.0987 | 0.1806 | 22.03 | 40.31 | 29771.00 | 54474.60 | 610 | 661 | Cc1cc(-c2ccc(NC(=O)CN3CCN(CC(=O)O)CCN(CC(=O)Nc4ccc(-c5ccc(N=Nc6ccc7c(S(=O)(=O)O)cc(S(=O)(=O)O)c(N)c7c6O)c(C)c5)cc4C)CC3)c(C)c2)ccc1N=Nc1ccc2c(S(=O)(=O)O)cc(S(=O)(=O)O)c(N)c2c1O [N(tEB)2] | Kd times lower than EB complex with albumin [2]: 2 times; Kd times lower than NtEB complex with albumin [2]: 43 times; Kon value [2]: 47100 M⁻¹ s⁻¹; koff value [2]: 0.10 s⁻¹; Kd ([2]; pH 7.4): 1.8 µM; Koff ([2]; pH 7.4): 0.1009 s⁻¹; Kon ([2]; pH 7.4): 4.7128; Tumor retention compared with IgG ([3]; 24 h p.i.): comparable; Tumor retention compared with IgG ([3]; 48 h p.i.): significantly higher; Tumor uptake compared with NtEB ([3]; ^64Cu labeled, all tested tumor models, 24 and/or 48 h p.i.): significantly improved; Dimerization of albumin (AFM) [4]: observed at all tested molar ratios; QE improvement over NtEB [1]: 5 fold; Quantum yield enhancement over NtEB [1]: 2 fold; QE ([1]; In BSA): 78929.01; QY600nm ([1]; In BSA): 2.10; QE ([1]; In FBS): 98962.49; QY600nm ([1]; In FBS): 2.10; Extinction coefficient [1]: 55198 M⁻¹ cm⁻¹
3 | 0.0759 | 0.1108 | 18.98 | 27.70 | 15696.60 | 22914.15 | 0.0883 | 0.1132 | 22.08 | 28.30 | 18261.00 | 23410.48 | 0.0857 | 0.1533 | 21.43 | 38.33 | 17723.31 | 31703.42 | 550 | 652 | Cc1cc(-c2ccc(NC(=O)CN3CCN(CC(=O)O)CCN(CC(=O)O)CC3)c(C)c2)ccc1N=Nc1ccc2c(S(=O)(=O)O)cc(S(=O)(=O)O)c(N)c2c1O [NtEB] | Kd ([2]; pH 7.4): 79 µM; Koff ([2]; pH 7.4): 0.7947 s⁻¹; kon ([2]; pH 7.4): 13500 M⁻¹ s⁻¹; Dimerization of albumin (AFM) [4]: no apparent albumin dimers; QE ([1]; In BSA): 15696.60; QY600nm ([1]; In BSA): 1; QE ([1]; In FBS): 18261.00; QY600nm ([1]; In FBS): 1; Extinction coefficient [1]: 22914 M⁻¹ cm⁻¹
4 | – | – | – | – | – | – | – | – | – | – | – | – | – | – | – | – | – | – | – | – | exendin-4: exendin-4 peptide, a glucagon-like peptide-1 (GLP-1) agonist | Reduction of glucose level ([5]; 1 h p.i., normalized to baseline plasma glucose): approximately 50%; Glucose level at recovery ([5]; at 12 h): 389.67 ± 44.3 mg/dL; Effective time window (from 50% reduction of glucose level to rebound to the original level) ([5]; single subcutaneous injection): 10.3 h; Glucose recovery time ([5]; single subcutaneous injection): 12 h
